In paper PMC3934957, “A Porphodimethene Chemical Inhibitor of Uroporphyrinogen Decarboxylase” (PLoS ONE, 2014):

Target: T1, uroporphyrinogen decarboxylase (UROD) (Homo sapiens, UniProt P06132)
T1 construct: recombinant UROD (GenBank BC001778) with 5'-histidine tag and thrombin cleavage site
T1 sequence (P06132 1-367): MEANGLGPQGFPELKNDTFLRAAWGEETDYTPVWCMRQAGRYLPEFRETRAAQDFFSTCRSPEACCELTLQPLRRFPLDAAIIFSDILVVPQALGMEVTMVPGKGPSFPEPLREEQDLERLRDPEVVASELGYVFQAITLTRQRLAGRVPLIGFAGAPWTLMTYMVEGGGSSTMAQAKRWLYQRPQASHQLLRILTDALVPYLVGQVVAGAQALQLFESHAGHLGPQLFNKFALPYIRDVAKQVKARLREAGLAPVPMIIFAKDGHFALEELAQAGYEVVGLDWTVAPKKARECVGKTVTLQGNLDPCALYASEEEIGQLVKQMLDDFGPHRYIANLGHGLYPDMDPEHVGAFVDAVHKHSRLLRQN
Assay: Recombinant UROD enzyme assay with RP-HPLC fluorescence detection of uroporphyrin/coproporphyrin ([…] UROD, […] uroporphyrinogen)
Format: biochemical

IC50: 9.9 µM
Structure (SMILES): CC1=C(CCC(=O)O)C2=Cc3[nH]c(c(C)c3CCC(=O)O)C(C)(C)C3=NC(=Cc4[nH]c(c(C)c4CCC(=O)O)C(C)(C)C1=N2)C(CCC(=O)O)=C3C [PI-16]
